Data from patent US11753407B2, “Compounds for treating spinal muscular atrophy” (PTC Therapeutics, Inc., priority 2012, dated 2023).

Key:
[1] = tested on: Smn protein in SMA patient fibroblast cells (GM03813); experiment: Smn protein assay in cultured cells (SMN HTRF); format: cell-based, human; details: SMA patient fibroblast cells, 48 hours; for EC1.5x for Smn protein expression: 7-point concentration curve, SMN HTRF, concentration producing 1.5 times Smn protein vs DMSO vehicle control; for maximum fold (Fold) increase of Smn protein: 7-point concentration data, fold relative to vehicle control
How it was run: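 Read-out: HTRF 665/620 nm ratio, blank-subtracted as ΔF, then expressed as fold over DMSO vehicle. Fibroblasts from SMA patients were exposed to compounds for 48 h (7 points, 3.16-fold steps, triplicates). Values are EC1.5× and maximum fold Smn increase.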

[2] = tested on: SMN2 minigene mRNA (SMN2-A minigene) in HEK293H cells; experiment: SMN2 minigene mRNA splicing RT-qPCR assay in cultured cells; format: cell-based, human; details: Homo sapiens, HEK293-H; concentration increasing full length SMN2 mRNA 1.5-fold relative to vehicle-treated cells; HEK293H cells with SMN2-A minigene, 24 hours, 7-point concentration data; read-out: EC1.5x for production of full length SMN2 mRNA
How it was run: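 Read-out: minigene-specific full-length (exon 7-included) SMN2 mRNA by one-step multiplex RT-qPCR, normalized to GAPDH and divided by vehicle-treated level. Stable SMN2-A minigene HEK293H cells, 24 h compound exposure, 7 concentrations in duplicate. EC1.5× = concentration raising FL mRNA 1.5-fold.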

Structure (SMILES)	melting point	EC1.5x for Smn protein expression [1]	maximum fold (Fold) increase of Smn protein [1]	EC (1.5-fold increase) [2]
CCN1CCN(c2ccc3nc(-c4cc5cnc(C)cn5n4)cc(=O)n3c2)CC1 [Compound 466, 7-(4-ethylpiperazin-1-yl)-2-(6-methylpyrazolo[1,5-a]pyrazin-2-yl)-4H-pyrido[1,2-a]pyrimidin-4-one]	220 to 230 °C	*** (an EC1.5× between >0.3 μM and ≤1 μM is indicated by three stars (***))	***** (a fold increase >1.65 is indicated by five stars (*****))	< 0.1 µM
Cc1cn2nc(-c3cc(=O)n4cc(N5CCN6CCC[C@@H]6C5)ccc4n3)cc2cn1 [Compound 467, 7-[(8aR)-hexahydropyrrolo[1,2-a]pyrazin-2(1H)-yl]-2-(6-methylpyrazolo[1,5-a]pyrazin-2-yl)-4H-pyrido[1,2-a]pyrimidin-4-one]	240 to 250 °C	**** (an EC1.5x≤0.3 μM is indicated by four stars (****))	***** (a fold increase >1.65 is indicated by five stars (*****))	< 0.1 µM
Cc1cn2nc(-c3cc(=O)n4cc(N5CCC(N(C)C)CC5)ccc4n3)cc2cn1 [Compound 468, 7-[4-(dimethylamino)piperidin-1-yl]-2-(6-methylpyrazolo[1,5-a]pyrazin-2-yl)-4H-pyrido[1,2-a]pyrimidin-4-one]	240 to 242 °C	*** (an EC1.5× between >0.3 μM and ≤1 μM is indicated by three stars (***))	**** (a fold increase between >1.5 and ≤1.65 is indicated by four stars (****))	< 0.1 µM
Cc1cn2nc(-c3cc(=O)n4cc(N5CCN(CCO)CC5)ccc4n3)cc2cn1 [Compound 469, 7-[4-(2-hydroxyethyl)piperazin-1-yl]-2-(6-methylpyrazolo[1,5-a]pyrazin-2-yl)-4H-pyrido[1,2-a]pyrimidin-4-one]	254 to 256 °C	*** (an EC1.5× between >0.3 μM and ≤1 μM is indicated by three stars (***))	***** (a fold increase >1.65 is indicated by five stars (*****))	0.1 to 0.3 µM
CCCN1CCC(c2ccc3nc(-c4ccc5nc(C)cn5c4)cc(=O)n3c2)CC1 [Compound 470, 2-(2-methylimidazo[1,2-a]pyridin-6-yl)-7-(1-propylpiperidin-4-yl)-4H-pyrido[1,2-a]pyrimidin-4-one]	159 to 161 °C	**** (an EC1.5x≤0.3 μM is indicated by four stars (****))	**** (a fold increase between >1.5 and ≤1.65 is indicated by four stars (****))	< 0.1 µM
Cc1cn2nc(-c3cc(=O)n4cc(N5CCN[C@H](C)C5)ccc4n3)cc2cn1 [Compound 472, 7-[(3R)-3-methylpiperazin-1-yl]-2-(6-methylpyrazolo[1,5-a]pyrazin-2-yl)-4H-pyrido[1,2-a]pyrimidin-4-one]	240 to 244 °C	**** (an EC1.5x≤0.3 μM is indicated by four stars (****))	***** (a fold increase >1.65 is indicated by five stars (*****))	< 0.1 µM
Cc1cn2nc(-c3cc(=O)n4cc(C5=CCNCC5)ccc4n3)cc2cn1 [Compound 473, 2-(6-methylpyrazolo[1,5-a]pyrazin-2-yl)-7-(1,2,3,6-tetrahydropyridin-4-yl)-4H-pyrido[1,2-a]pyrimidin-4-one]	260 to 265 °C	**** (an EC1.5x≤0.3 μM is indicated by four stars (****))	***** (a fold increase >1.65 is indicated by five stars (*****))	< 0.1 µM
Cn1cc2cc(-c3cc(=O)n4cc(C5=CCNCC5)ccc4n3)ccc2n1 [Compound 474, 2-(2-methyl-2H-indazol-5-yl)-7-(1,2,3,6-tetrahydropyridin-4-yl)-4H-pyrido[1,2-a]pyrimidin-4-one]	239 to 241 °C	**** (an EC1.5x≤0.3 μM is indicated by four stars (****))	**** (a fold increase between >1.5 and ≤1.65 is indicated by four stars (****))	< 0.1 µM
CN1CCC(c2ccc3nc(-c4ccc5c(cnn5C)c4)cc(=O)n3c2)CC1 [Compound 475, 2-(1-methyl-1H-indazol-5-yl)-7-(1-methylpiperidin-4-yl)-4H-pyrido[1,2-a]pyrimidin-4-one]	216 to 218 °C	** (an EC1.5× between >1 μM and ≤3 μM is indicated by two stars (**))	*** (a fold increase between >1.35 and ≤1.5 is indicated by three stars (***))	0.3 to 1 µM
CN1CC=C(c2ccc3nc(-c4ccc5nn(C)cc5c4)cc(=O)n3c2)CC1 [Compound 476, 2-(2-methyl-2H-indazol-5-yl)-7-(1-methyl-1,2,3,6-tetrahydropyridin-4-yl)-4H-pyrido[1,2-a]pyrimidin-4-one]	226 to 228 °C	**** (an EC1.5x≤0.3 μM is indicated by four stars (****))	***** (a fold increase >1.65 is indicated by five stars (*****))	< 0.1 µM
CCN1CC=C(c2ccc3nc(-c4ccc5nn(C)cc5c4)cc(=O)n3c2)CC1 [Compound 477, 7-(1-ethyl-1,2,3,6-tetrahydropyridin-4-yl)-2-(2-methyl-2H-indazol-5-yl)-4H-pyrido[1,2-a]pyrimidin-4-one]	198 to 200 °C	**** (an EC1.5x≤0.3 μM is indicated by four stars (****))	**** (a fold increase between >1.5 and ≤1.65 is indicated by four stars (****))	< 0.1 µM
CCN1CCC(c2ccc3nc(-c4ccc5nc(C)cn5c4)cc(=O)n3c2)CC1 [Compound 478, 7-(1-ethylpiperidin-4-yl)-2-(2-methylimidazo[1,2-a]pyridin-6-yl)-4H-pyrido[1,2-a]pyrimidin-4-one]	190 to 192 °C	**** (an EC1.5x≤0.3 μM is indicated by four stars (****))	***** (a fold increase >1.65 is indicated by five stars (*****))	< 0.1 µM
Cc1cn2cc(-c3cc(=O)n4cc(C5=CCN(C(C)C)CC5)ncc4n3)cc2c(C)n1 [Compound 479, 2-(1,3-dimethylpyrrolo[1,2-a]pyrazin-7-yl)-7-[1-(propan-2-yl)-1,2,3,6-tetrahydropyridin-4-yl]-4H-pyrazino[1,2-a]pyrimidin-4-one]	220 to 222 °C	–	** (a fold increase between >1.2 and ≤1.35 is indicated by two stars (**))	< 0.1 µM
Cc1cn2nc(-c3cc(=O)n4cc(C5=CCNCC5)cc(C)c4n3)cc2c(C)n1 [Compound 480, 2-(4,6-dimethylpyrazolo[1,5-a]pyrazin-2-yl)-9-methyl-7-(1,2,3,6-tetrahydropyridin-4-yl)-4H-pyrido[1,2-a]pyrimidin-4-one]	> 300 °C	**** (an EC1.5x≤0.3 μM is indicated by four stars (****))	***** (a fold increase >1.65 is indicated by five stars (*****))	< 0.1 µM
Cc1cn2nc(-c3cc(=O)n4cc(C5=CCN(C)CC5)ccc4n3)cc2cn1 [Compound 484, 2-(6-methylpyrazolo[1,5-a]pyrazin-2-yl)-7-(1-methyl-1,2,3,6-tetrahydropyridin-4-yl)-4H-pyrido[1,2-a]pyrimidin-4-one]	126 to 128 °C	**** (an EC1.5x≤0.3 μM is indicated by four stars (****))	***** (a fold increase >1.65 is indicated by five stars (*****))	< 0.1 µM
Cc1cc2cc(-c3cc(=O)n4cc(N5CCN(C)CC5)ccc4n3)oc2c(C)n1 [Compound 487, 2-(5,7-dimethylfuro[2,3-c]pyridin-2-yl)-7-(4-methylpiperazin-1-yl)-4H-pyrido[1,2-a]pyrimidin-4-one]	256 to 258 °C	**** (an EC1.5x≤0.3 μM is indicated by four stars (****))	**** (a fold increase between >1.5 and ≤1.65 is indicated by four stars (****))	0.1 to 0.3 µM
Cc1cc2cc(-c3cc(=O)n4cc(N5CCN[C@@H](C)C5)ccc4n3)oc2c(C)n1 [Compound 488, 2-(5,7-dimethylfuro[2,3-c]pyridin-2-yl)-7-[(3S)-3-methylpiperazin-1-yl]-4H-pyrido[1,2-a]pyrimidin-4-one]	202 to 204 °C	**** (an EC1.5x≤0.3 μM is indicated by four stars (****))	**** (a fold increase between >1.5 and ≤1.65 is indicated by four stars (****))	< 0.1 µM
CN1CCN(c2ccc3nc(-c4ccc5c(cnn5C)c4)cc(=O)n3c2)CC1 [Compound 489, 2-(1-methyl-1H-indazol-5-yl)-7-(4-methylpiperazin-1-yl)-4H-pyrido[1,2-a]pyrimidin-4-one]	194 to 196 °C	** (an EC1.5× between >1 μM and ≤3 μM is indicated by two stars (**))	**** (a fold increase between >1.5 and ≤1.65 is indicated by four stars (****))	0.1 to 0.3 µM
